Data from PMC5399052, “Integrating in vitro data and physiologically based kinetic (PBK) modelling to assess the in vivo potential developmental toxicity of a series of phenols” (Archives of Toxicology, 2016).
Like-named read-outs stand apart in the source and are kept apart here. Marks after values point to notes of the source that are not given here.

What was measured:
[1] = rat at GD20; ref Varma and Ramakrishnan [1985]; cited from earlier work
in vivo = details: female, rat GD11, allometrically scaled from GD20 value of Varma and Ramakrishnan [1985], read-out: CLPL, transplacental maternal-foetal clearance rate (converted)
BeWo cells = assay: In vitro placental transport study (BeWo b30 transwell)
Procedure: (§1) BeWo cells (passages 28–31) were cultured in DMEM with […] and supplemented with 10% (v/v) heat-inactivated FCS, 2 mM L-glutamine, 10,000 U/ml penicillin and 10 mg/ml streptomycin and maintained in polystyrene cell culture flasks (Corning, Amsterdam, the Netherlands) in a 5% CO2-humidified atmosphere at 37 °C. Cells were harvested after exposure to a trypsin–EDTA solution. Next, the cells were seeded onto Transwell® inserts (0.4-µm pored polycarbonate membrane, 12 mm diameter), with a density of 10^5 cells/cm^2. Cell culture medium (0.5 and 1.5 ml in the apical and basolateral compartment, respectively) was changed daily.
(§2) Transport experiments were performed 6 days post-seeding. The transport buffer consisted of HBSS with 30 mg/ml bovine serum albumin (apical compartment) and 10 mg/ml bovine serum albumin (basolateral compartment) representing mid- and late gestational maternal and embryonic/foetal rat plasma albumin levels, respectively (Honda et al. [2008]; Mcmullin et al. [2008]; Yeoh and Morgan [1974]). The transport experiments were performed for the same compounds and according to the same method as described for the Caco-2 transport experiments, except that only cell layers with a TEER value >190 Ω cm^2 were used for the transport experiments. The BeWo transport studies encompassed four independently performed experiments including two replicates in each assay. Samples were analysed by UPLC–PDA (see “Quantification of analytes” section) for the presence of the test compound and possible metabolites. The apparent permeability coefficients were calculated using the same method as described for the Caco-2 transport experiments.

[2] = as above; details: human
Procedure: as §1, §2

rat liver microsomes [3] = assay: Glucuronidation of phenols by rat liver microsomes; details: for Vmax(app) glucuronidation (± SD): rat liver microsomes, 10 mM UDPGA, alamethicin activated
Procedure: (§3) The formation of glucuronide metabolites of the p-substituted phenols was investigated in incubations with rat liver microsomes. […] To obtain maximum glucuronidation activity, the microsomes were activated by preincubating the incubation mixture with 0.025 mg/ml alamethicin added from a 200 times concentrated stock solution in methanol, during 15 min on ice (Fisher et al. [2000]). Subsequently, the incubations were started after a 1-min preincubation at 37 °C by addition of the substrate from a 200 times concentrated stock solution in DMSO and incubated in a shaking water bath at 37 °C for 45 min. The reactions were terminated by addition of ice-cold acetonitrile (20% v/v). In the blank incubation mixtures, UDPGA was omitted. Samples were analysed by UPLC–PDA (see “Quantification of analytes” section). No reference standards of the glucuronide metabolites were commercially available. […] At first, retention times from the UPLC–PDA chromatograms of the parent compound of the blank incubation were compared with the retention times of newly appearing peaks in chromatograms of the incubation mixtures, as the glucuronide conjugates are expected to elute earlier compared with their parent compounds due do their increased hydrophilicity. […] For this purpose, a volume of 10 µl of the incubation mixture of the glucuronidation assay (that was not terminated by the addition of ice-cold acetonitrile) was added to 90 µl of 200 mM potassium phosphate (pH 6.2). Then, 4 µl of glucuronidase (200 units/ml) was added, and the mixtures were incubated for 60 min in a shaking water bath at 37 °C. The reactions were terminated by addition of ice-cold acetonitrile (20% v/v) and were put on ice. Control samples were treated under the same conditions, but without glucuronidase.
(§4) The conditions of the incubation assays were optimised to obtain linear reaction rates with respect to incubation time and protein concentration and non-limiting cofactor levels were applied. […] To obtain maximum glucuronidation activity, the microsomes were activated by preincubating the incubation mixture with 0.025 mg/ml alamethicin added from a 200 times concentrated stock solution in methanol, during 15 min on ice (Fisher et al. [2000]).
(§5) Kinetic constants for the glucuronidation of the p-substituted phenols were derived by fitting the data to the standard Michaelis–Menten equation; v=Vmax∗S/Km+[S] in which [S] represents the substrate concentration, V max the maximum velocity and K m the Michaelis–Menten constant for the formation of the glucuronide metabolites. Data analysis was accomplished using GraphPad Prism 5.0 software (GraphPad, San Diego, CA, USA). […] The in vivo K m value was assumed to be the same to the in vitro K m value.
(§6) Samples from the BeWo and Caco-2 transport experiments were centrifuged at 13,000 rpm at 5 °C for 15 min. Next 7.5 µl of the supernatant of each sample was analysed by UPLC (Waters Acquity). Samples from the glucuronidation assays were centrifuged at 15,000 rpm at 5 °C for 5 min. […] All samples, except those from transport studies with fluorescein, were analysed on a Waters BEH C18 1.7 µm column, 2.1 × 50 mm, with nanopure water (0.1% TFA) (A) and pure acetonitrile (B) applying a gradient elution. The start condition was 100:0 (A:B), changing to 90:10 from 1 to 2 min, then to 10:90 from 2 to 4 min (or from 2 to 3 min when analysing samples for p-heptyloxyphenylglucuronide), remaining at this ratio for 0.5 min and then rapidly declining to the start condition. The flow rate was 0.6 ml/min.

in vitro [4] = details: human, Caco-2
Procedure: (§7) Caco-2 cells (passages 37–40) were cultured in DMEM containing 25 mM HEPES (pH 7.4) supplemented with 10% (v/v) heat-inactivated FCS, 4500 mg/l glucose, 2 mM L-glutamine, 1% (v/v) minimal essential medium non-essential amino acids, 10,000 U/ml penicillin and 10 mg/ml streptomycin and maintained in polystyrene cell culture flasks (Corning, Amsterdam, the Netherlands) in a 5% CO2-humidified atmosphere at 37 °C. Cells were harvested after exposure to a trypsin–EDTA solution. Next, the cells were seeded onto Transwell® inserts (0.4 µm pored polycarbonate membrane, 12 mm diameter), at a density of 10^5 cells/cm^2. Cell culture medium (0.5 and 1.5 ml in the apical and basolateral compartment, respectively) was changed every two days.
(§8) Transport experiments were performed between day 20 and 23 post-seeding. Prior to the transport experiments, the cell culture medium was removed and cells were equilibrated in HBSS for 30–45 min in a 5% CO2-humidified atmosphere at 37 °C. In these 45 min, the integrity of the cell monolayer was examined by measuring the Trans Epithelial Electrical Resistance (TEER) of the cell layer using a Millicell ERS-2 Volt–Ohm Meter (Millipore, USA). Only cell layers with a TEER value between 500 and 1000 Ω cm^2 were used for the transport experiments. The transport buffer for the apical compartment consisted of HBSS containing 10 mM HEPES (pH 6.5) and 10 mM sodium taurocholate and the transport buffer for the basolateral compartment consisted of HBSS (pH 7.4) with 30 mg/ml bovine serum albumin. At first, 1.5 ml pre-warmed (37 °C) transport buffer was added to the basolateral compartment. Then, the transport experiments were started by adding 0.5 ml pre-warmed transport buffer containing the test compound (100 µM) to the apical compartment. After 60-min incubation in a 5% CO2-humidified atmosphere at 37 °C, a 75 µl sample was taken from the basolateral compartment and then from the apical compartment. Each sample was added to 150 µl ice-cold methanol, vortexed and put on ice immediately. […] Samples were analysed by UPLC–PDA (see “Quantification of analytes” section) for the presence of the test compound and possible metabolites.
(§9) TEER values were also measured at the end of the transport experiment, during the first washing step and compared to the TEER values measured before the transport experiment in order to assess toxicity of the test compound to the cell monolayer. […]
(§10) The apparent permeability coefficients (P app; cm/s) were calculated using the following algorithm: Papp=ΔQ/Δt/A∗C0 where P app is the apparent permeability coefficient (cm/s), ΔQ/Δt (nmol/s) is the amount of the test compound transported to the receiver chamber in a certain time period, A is the transwell membrane surface area (cm^2) and C 0 is the initial concentration of the test compound in the donor compartment (µM).
(§11) In order to assess the validity of the P app calculations for this experiment, the linearity of transport from the apical to the basolateral side was verified by taking samples from the basolateral side at t = 15, 30, 60 and 90 min, at a test concentration of 100 µM. […] The recovery of the test compound in each transport experiment was calculated with a mass balance equation, taking into account the amount of the test compound in the apical and basolateral compartment and the amount in the cells and/or filter of the Transwell® insert.

[5] = cited from earlier work; for Concentration in EST culture medium over time: without cells, ref Strikwold et al. [2012]
Balb/c 3T3 clone A31 = details: BSA levels reflecting in vitro and in vivo situation
Procedure: (§12) In vitro concentration–response data obtained with the EST were translated to in vivo dose–response values by applying PBK-based reverse modelling, performed as described by Strikwold et al. ([2013]) with some modifications. […] In vivo albumin and fat levels that are used in the extrapolation rules were adjusted to values that correspond to embryos/foetuses during mid-/late gestation. […] The vitro lipid fraction and albumin levels resembling the situation in the EST were 0.04% and 4.8 mg/ml, respectively (Verwei et al. [2006]).

rat liver microsomes [6] = details: cited from earlier work
[7] = In vivo developmental toxicity study, rats exposed at GD11; details: female, rat
Text: (§13) The BMDL05 values of the in vivo study were derived using the BMDS version 2.6.

[8] = rat, ref Humphrey et al. [1980], cited from earlier work
in vitro [9] = details: rat, pH 7.4
Procedure: as §3, §4, §5, §6

Caco-2 cells = assay: in vitro
Procedure: as §7, §8, §9, §10, §11

rat = assay: In vitro PBK-based reverse dosimetry (predicted developmental toxicity); details: BMDL05 based on Cmax
Procedure: as §12, §13

ES-D3 cells = details: ref Strikwold et al. [2012]; cited from earlier work
albumin = details: cited from earlier work
whole embryo culture = details: cited from earlier work
[10] = P app ratio to antipyrine multiplied by antipyrine clearance 0.18 l/h, GD11

SMILES | CLPL, predicted rat transplacental clearance (BeWo cells; [10]) | Papp A→B at 60 min, 100 µM [2] | Papp A→B at 60 min, 100 µM (in vitro [4]) | Concentration in EST culture medium over time [5] | Vmax(app) glucuronidation (± SD) (rat liver microsomes [3]) | Potency ratio (phenol / p-substituted phenol), in vitro PBK approach (rat) | CLPL, predicted rat transplacental clearance (BeWo cells) | Km (rat liver microsomes [3]) | Scaled Vmax(app) (rat liver microsomes [3]) | ka, predicted oral absorption coefficient (Caco-2 cells; Caco-2) | further results
Cc1cc(=O)n(-c2ccccc2)n1C [Antipyrine, antipyrine] | – | – | – | – | – | – | – | – | – | – | Transplacental clearance value [1]: 7.47 mL/min/kg; clearance (in vivo): 3 mL/min
Oc1ccccc1 [Phenol] | 0.19 L/h | 41.6 ± 3.4 ×10⁻⁶ cm/s | 48.4 ± 8.6 ×10⁻⁶ cm/s | decreased in time | – | – | – | – | – | – | P app fold higher than antipyrine (BeWo cells; BeWo): 1.03 fold; Scaled catalytic efficiency (rat liver microsomes [3]; scaled to rat liver): 0.44 l/h/g liver; Scaled Vmax(app) (rat liver microsomes [3]; scaled with microsomal protein yield 38 mg/g rat liver): 205 µmol/h/g liver; Loss in the EST ([5]; 10-day EST, ref Strikwold et al. [2013]): 39%; Effect of bovine serum albumin level on in vitro cytotoxicity (Balb/c 3T3 clone A31): not affected; Km (rat liver microsomes [6]; read-out: Km(app) glucuronidation (± SD), ref Strikwold et al. [2013]): 465 ± 66 µM; Vmax(app) glucuronidation (± SD) (rat liver microsomes [6]; ref Strikwold et al. [2013]): 90 ± 4 nmol/min/mg microsomal protein; NOAEL [7]: 333 mg/kg; ka, uptake rate from in situ intestinal perfusion [8]: 7.62^b /h; ka, uptake rate from in situ intestinal perfusion ([8]; listed as phenol): 7.62 h⁻¹
O=C1OC2(c3ccc(O)cc3Oc3cc(O)ccc32)c2ccccc21 [fluorescein, reference compound] | – | – | – | – | – | – | – | – | – | – | P app / transport fold lower than antipyrine (BeWo cells; BeWo): 11 fold
Oc1ccc(F)cc1 [p-Fluorophenol, p-fluorophenol] | 0.15 L/h | 34.2 ± 3.3 ×10⁻⁶ cm/s | 47.7 ± 13.8 ×10⁻⁶ cm/s | decreased in time | 101 ± 1.6 nmol/min/mg microsomal protein | 0.7 fold | – | – | – | – | Catalytic efficiency (Vmax/Km) (rat liver microsomes [3]; Sprague-Dawley, rat, pH 7.4): 0.32 ml/min/mg protein; Scaled catalytic efficiency (rat liver microsomes [3]; Sprague-Dawley, rat, pH 7.4): 0.74 l/h/g liver; Scaled Vmax(app) (rat liver microsomes [3]; rat, pH 7.4): 231 µmol/h/g liver; Km at 10 min (in vitro [9]): 314 ± 16 µM; ka, predicted oral absorption coefficient (Caco-2 cells; rat, Caco-2, 100 µM): 7.52 h⁻¹; Potency ratio / difference in BMC50 (phenol / p-substituted phenol) in the EST (ES-D3 cells): 1.9 fold
CCCCCCCOc1ccc(O)cc1 [p-Heptyloxyphenol, p-heptyloxyphenol] | – | – | – | stable | 60 ± 4.5 nmol/min/mg microsomal protein | – | 0.026 L/h | 2.1 ± 0.6 µM | 137 µmol/h/g liver | 6.34 h⁻¹ | Fraction bound to albumin (albumin): 0.99; Embryotoxic potency when hepatocytes were added (whole embryo culture): greatly reduced
CC(=O)c1ccc(O)cc1 [p-Methylketophenol, p-methylketophenol] | – | – | – | stable | 160 ± 4.4 nmol/min/mg microsomal protein | 0.5 fold | 0.12 L/h | 138 ± 17 µM | 365 µmol/h/g liver | 8.18 h⁻¹ | Catalytic efficiency (Vmax/Km) (rat liver microsomes [3]): 1.16 ml/min/mg protein; Scaled catalytic efficiency (rat liver microsomes [3]): 2.65 l/h/g liver
